Results from PubChem BioAssay (NCI).
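Grown in 96-well plates, cells were treated for 48 hours with each compound at five concentrations. Insufficient inhibition: endpoint recorded as highest concentration tested. GI50: concentration for 50% inhibition of growth. TGI: total growth inhibition.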

Legend:
Assay in all cases: NCI anticancer screen, dose series, 48 h
[1] = test system: OVCAR-4 ovarian
[2] = test system: UACC-257 melanoma
[3] = test system: SR leukemia
[4] = test system: K-562 leukemia
[5] = test system: U251 CNS
[6] = test system: DU-145 prostate
[7] = test system: CAKI-1 renal
[8] = test system: SF-295 CNS
[9] = test system: SF-268 CNS
[10] = test system: HCC-2998 colon
[11] = test system: SK-MEL-5 melanoma
[12] = test system: T-47D breast
[13] = test system: M14 melanoma
[14] = test system: UO-31 renal
[15] = test system: MCF7 breast
[16] = test system: SN12C renal
[17] = test system: LOX IMVI melanoma
[18] = test system: CCRF-CEM leukemia
[19] = test system: KM12 colon
[20] = test system: RXF 393 renal
[21] = test system: NCI-H23 lung
[22] = test system: IGROV1 ovarian
[23] = test system: HOP-62 NSCLC
[24] = test system: HCT-15 colon
[25] = test system: A498 renal
[26] = test system: 786-0 renal
[27] = test system: HS 578T breast
[28] = test system: SW-620 colon
[29] = test system: OVCAR-3 ovarian
[30] = test system: SNB-19 CNS
[31] = test system: NCI/ADR-RES ovarian
[32] = test system: COLO 205 colon
[33] = test system: PC-3 prostate
[34] = test system: MDA-MB-435
[35] = test system: UACC-62 melanoma
[36] = test system: RPMI-8226 leukemia
[37] = test system: MOLT-4 leukemia
[38] = test system: OVCAR-5 ovarian
[39] = test system: HL-60(TB) leukemia
[40] = test system: TK-10 renal
[41] = test system: EKVX NSCLC
[42] = test system: HT29 colon
[43] = test system: ACHN renal
[44] = test system: SNB-75 CNS
[45] = test system: NCI-H460 lung
[46] = test system: HOP-92 NSCLC
[47] = test system: OVCAR-8 ovarian
[48] = test system: SF-539 CNS
[49] = test system: A549 NSCLC
[50] = test system: NCI-H522 lung
[51] = test system: NCI-H226 lung
[52] = test system: SK-MEL-2 melanoma
[53] = test system: SK-OV-3 ovarian
[54] = test system: BT-549 breast
[55] = test system: SK-MEL-28 melanoma
[56] = test system: MDA-MB-231 breast
[57] = test system: MALME-3M melanoma
[58] = test system: HCT-116 colon

COc1ccc2c(c1)c(/C=N/Nc1ccnc3cc(Cl)ccc13)cn2C showed a GI50 [1] of 681 nM, a TGI [1] of 1700 nM and a GI50 [2] of 1780 nM. For the same molecule, the TGI [2] was 3660 nM, the GI50 [3] was 143 nM and the TGI [3] was 521 nM. It also gave a GI50 [4] of 193 nM, a TGI [4] of 382 nM and a GI50 [5] of 173 nM. For the same molecule, the TGI [5] was 322 nM, the GI50 [6] was 192 nM and the TGI [6] was 349 nM. It also gave a GI50 [7] of 1490 nM, a TGI [7] of 2890 nM and a GI50 [8] of 1110 nM. The TGI [8] was 3150 nM, the GI50 [9] was 1660 nM and the TGI [9] was 3460 nM. The GI50 [10] was 369 nM, the TGI [10] was 1190 nM and the GI50 [11] was 1640 nM. For the same molecule, the TGI [11] was 3180 nM, the GI50 [12] was 227 nM and the TGI [12] was 599 nM. It also gave a GI50 [13] of 992 nM, a TGI [13] of 2600 nM and a GI50 [14] of 1390 nM. The TGI [14] was 2850 nM, the GI50 [15] was 164 nM and the TGI [15] was 327 nM. It also gave a GI50 [16] of 439 nM, a TGI [16] of 961 nM and a GI50 [17] of 183 nM. For the same molecule, the TGI [17] was 352 nM, the GI50 [18] was 234 nM and the TGI [18] was 589 nM. It also gave a GI50 [19] of 194 nM, a TGI [19] of 384 nM and a GI50 [20] of 1260 nM. It also gave a TGI [20] of 2900 nM, a GI50 [21] of 214 nM and a TGI [21] of 556 nM. It also gave a GI50 [22] of 176 nM, a TGI [22] of 345 nM and a GI50 [23] of 1450 nM. For the same molecule, the TGI [23] was 3300 nM, the GI50 [24] was 200 nM and the TGI [24] was 410 nM. The GI50 [25] was 1830 nM, the TGI [25] was 3470 nM and the GI50 [26] was 175 nM. It also gave a TGI [26] of 317 nM, a GI50 [27] of 1810 nM and a TGI [27] of 3880 nM. For the same molecule, the GI50 [28] was 185 nM, the TGI [28] was 360 nM and the GI50 [29] was 1180 nM. The TGI [29] was 2440 nM, the GI50 [30] was 648 nM and the TGI [30] was 2090 nM. The GI50 [31] was 600 nM, the TGI [31] was 1480 nM and the GI50 [32] was 578 nM. It also gave a TGI [32] of 1800 nM, a GI50 [33] of 517 nM and a TGI [33] of 1290 nM. It also gave a GI50 [34] of 186 nM, a TGI [34] of 354 nM and a GI50 [35] of 1730 nM. It also gave a TGI [35] of 3520 nM, a GI50 [36] of 233 nM and a TGI [36] of 565 nM. For the same molecule, the GI50 [37] was 215 nM, the TGI [37] was 478 nM and the GI50 [38] was 609 nM. It also gave a TGI [38] of 1190 nM, a GI50 [39] of 231 nM and a TGI [39] of 533 nM. The GI50 [40] was 1240 nM, the TGI [40] was 2780 nM and the GI50 [41] was 1510 nM. The TGI [41] was 3190 nM, the GI50 [42] was 176 nM and the TGI [42] was 325 nM. For the same molecule, the GI50 [43] was 683 nM, the TGI [43] was 1560 nM and the GI50 [44] was 1320 nM. It also gave a TGI [44] of 2800 nM, a GI50 [45] of 193 nM and a TGI [45] of 357 nM. It also gave a GI50 [46] of 823 nM, a TGI [46] of 2490 nM and a GI50 [47] of 202 nM. It also gave a TGI [47] of 440 nM, a GI50 [48] of 612 nM and a TGI [48] of 1250 nM. It also gave a GI50 [49] of 181 nM, a TGI [49] of 347 nM and a GI50 [50] of 563 nM. It also gave a TGI [50] of 1280 nM, a GI50 [51] of 1820 nM and a TGI [51] of 4310 nM. For the same molecule, the GI50 [52] was 1700 nM, the TGI [52] was 3280 nM and the GI50 [53] was 1570 nM. For the same molecule, the TGI [53] was 3140 nM, the GI50 [54] was 1890 nM and the TGI [54] was 3540 nM. For the same molecule, the GI50 [55] was 1840 nM, the TGI [55] was 3460 nM and the GI50 [56] was 203 nM. For the same molecule, the TGI [56] was 444 nM, the GI50 [57] was 1470 nM and the TGI [57] was 3270 nM. For the same molecule, the GI50 [58] was 176 nM and the TGI [58] was 324 nM.
